Source: ChEMBL document CHEMBL1130590, “Aryl sulfonamides as selective PDE4 inhibitors” (Bioorg Med Chem Lett, 1998)

Experiments:
Phosphodiesterase 4 [1] = target: T1, Phosphodiesterase 4 (Homo sapiens, UniProt P27815+Q08499+Q07343+Q08493); assay: Binding activity towards Rolipram binding site of phosphodiesterase 4; format: protein assay
Phosphodiesterase 4 [2] = target: T1, Phosphodiesterase 4; assay: Ratio of binding activity at catalytic site to Rolipram binding site of PDE4; format: protein assay
Phosphodiesterase 4 [3] = target: T1, Phosphodiesterase 4; assay: In vitro binding activity towards catalytic site of phosphodiesterase 4; format: protein assay
Phosphodiesterase 4 [4] = target: T1, Phosphodiesterase 4; assay: Binding activity towards Rolipram binding site of phosphodiesterase 4 at concentration 10 uM; format: protein assay
Phosphodiesterase 4 [5] = target: T1, Phosphodiesterase 4; assay: Inhibition of phosphodiesterase 4 at 20 uM; format: protein assay
Phosphodiesterase 4 [6] = target: T1, Phosphodiesterase 4; assay: Inhibition of phosphodiesterase 4 at 200 uM; format: protein assay
Phosphodiesterase 4 [7] = target: T1, Phosphodiesterase 4; assay: Inhibition of Rolipram binding to phosphodiesterase 4 at 100 uM; format: protein assay
Phosphodiesterase 1 [8] = target: T2, Phosphodiesterase 1 (Homo sapiens, UniProt P54750+Q01064+Q14123); assay: Inhibition of phosphodiesterase 1 at 200 uM; format: protein assay
[9] = target: Phosphodiesterase 3 (Homo sapiens) (UniProt Q14432+Q13370); assay: Inhibition of phosphodiesterase 3 at 200 uM; format: protein assay
[10] = target: cGMP-dependent 3',5'-cyclic phosphodiesterase (Homo sapiens) (UniProt O00408); assay: Inhibition of phosphodiesterase 2 at 200 uM
Chain of cGMP-dependent 3',5'-cyclic phosphodiesterase (Homo sapiens) (O00408 whole entry): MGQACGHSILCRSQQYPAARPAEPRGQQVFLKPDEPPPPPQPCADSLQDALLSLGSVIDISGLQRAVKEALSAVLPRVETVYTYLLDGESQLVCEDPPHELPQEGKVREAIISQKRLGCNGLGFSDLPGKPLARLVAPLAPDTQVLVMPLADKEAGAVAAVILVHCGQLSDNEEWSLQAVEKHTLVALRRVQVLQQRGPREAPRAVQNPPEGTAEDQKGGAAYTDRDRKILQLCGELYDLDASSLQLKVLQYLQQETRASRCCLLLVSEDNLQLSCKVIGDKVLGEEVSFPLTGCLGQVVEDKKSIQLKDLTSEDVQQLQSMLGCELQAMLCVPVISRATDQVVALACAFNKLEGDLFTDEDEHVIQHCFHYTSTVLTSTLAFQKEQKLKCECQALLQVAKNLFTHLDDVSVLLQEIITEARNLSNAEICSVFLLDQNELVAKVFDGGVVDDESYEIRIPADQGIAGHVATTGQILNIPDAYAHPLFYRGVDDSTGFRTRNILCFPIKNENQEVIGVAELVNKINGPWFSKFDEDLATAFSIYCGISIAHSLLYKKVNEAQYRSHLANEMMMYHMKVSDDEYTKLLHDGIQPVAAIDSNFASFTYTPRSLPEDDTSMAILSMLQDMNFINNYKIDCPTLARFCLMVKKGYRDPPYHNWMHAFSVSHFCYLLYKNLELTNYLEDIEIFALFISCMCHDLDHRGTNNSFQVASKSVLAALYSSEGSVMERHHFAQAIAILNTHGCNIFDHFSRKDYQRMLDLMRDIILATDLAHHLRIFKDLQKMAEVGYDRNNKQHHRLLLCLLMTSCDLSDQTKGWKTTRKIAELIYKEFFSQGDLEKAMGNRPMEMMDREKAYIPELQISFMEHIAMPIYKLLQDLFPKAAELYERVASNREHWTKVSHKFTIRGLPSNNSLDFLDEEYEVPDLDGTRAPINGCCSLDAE

[11] = target: cGMP-specific 3',5'-cyclic phosphodiesterase (Homo sapiens) (UniProt O76074); assay: Inhibition of phosphodiesterase 5 at 200 uM
Phosphodiesterase 4 [12] = target: T1, Phosphodiesterase 4; assay: Inhibition of Rolipram binding to phosphodiesterase 4 at 1 uM; format: protein assay
[13] = target: cGMP-dependent 3',5'-cyclic phosphodiesterase (Homo sapiens) (UniProt O00408); settings: 200 uM
Phosphodiesterase 1 [14] = target: T2, Phosphodiesterase 1; assay: Inhibition of phosphodiesterase 1 at 20 uM; format: protein assay
Phosphodiesterase 4 [15] = target: T1, Phosphodiesterase 4; assay: Inhibition of phosphodiesterase 4; format: protein assay
Phosphodiesterase 4 [16] = target: T1, Phosphodiesterase 4; assay: Inhibition of Rolipram binding to phosphodiesterase 4 at 20 uM; format: protein assay
Phosphodiesterase 4 [17] = target: T1, Phosphodiesterase 4; assay: Inhibition of Rolipram binding to phosphodiesterase 4; format: protein assay; settings: concentration not given here

COc1ccc(S(=O)(=O)N(CCC#N)CC2CCCO2)cc1OC (stereo unspecified)
IC50 (Phosphodiesterase 4 [1]): 112 µM
Ratio (Phosphodiesterase 4 [2]): 0.17
IC50 (Phosphodiesterase 4 [3]): 19 µM

COc1ccc2c(c1)C(NS(=O)(=O)c1ccc(OC)c(OC)c1)CC2 (stereo unspecified)
Ratio (Phosphodiesterase 4 [2]): < 0.25
IC50 (Phosphodiesterase 4 [3]): 2.5 µM
inhibition (Phosphodiesterase 4 [4]): 2%

COc1ccc(S(=O)(=O)N(CCC#N)Cc2ccco2)cc1OC1CCCC1
IC50 (Phosphodiesterase 4 [1]): 10 µM
inhibition (Phosphodiesterase 4 [5]): 32%
Ratio (Phosphodiesterase 4 [2]): > 1

COc1ccc(S(=O)(=O)NC2CCc3cc(Cl)ccc32)cc1OC (stereo unspecified)
Ratio (Phosphodiesterase 4 [2]): < 0.5
IC50 (Phosphodiesterase 4 [3]): 5.2 µM
inhibition (Phosphodiesterase 4 [4]): 12%

COc1ccc(S(=O)(=O)N(Cc2cccnc2)S(=O)(=O)CCNS(=O)(=O)c2ccccc2)cc1OC
IC50 (Phosphodiesterase 4 [1]): 24 µM
Ratio (Phosphodiesterase 4 [2]): 0.13
IC50 (Phosphodiesterase 4 [3]): 3 µM

COc1ccc(S(=O)(=O)NCc2cccnc2)cc1OC
inhibition (Phosphodiesterase 4 [6]): 39%
inhibition (Phosphodiesterase 4 [7]): 41%

COc1ccc(C(=O)N2CCCc3ccccc32)cc1OC
inhibition (Phosphodiesterase 1 [8]): 14%
Ratio (Phosphodiesterase 4 [2]): < 1
IC50 (Phosphodiesterase 4 [3]): 20 µM
inhibition [9]: 31%
inhibition [10]: 21%
inhibition [11]: 12%
inhibition (Phosphodiesterase 4 [4]): 15%

CCCN(Cc1ccco1)S(=O)(=O)c1ccc(OC)c(OC)c1
IC50 (Phosphodiesterase 4 [1]): 15 µM
Ratio (Phosphodiesterase 4 [2]): 0.1
IC50 (Phosphodiesterase 4 [3]): 1.5 µM

COc1ccc(S(=O)(=O)N(Cc2cccnc2)S(C)(=O)=O)cc1OCCCCCc1ccccc1
Ratio (Phosphodiesterase 4 [2]): < 1
IC50 (Phosphodiesterase 4 [3]): 1.5 µM
inhibition (Phosphodiesterase 4 [12]): 18%

COc1ccc(S(=O)(=O)N(Cc2cccnc2)S(C)(=O)=O)cc1OC
IC50 (Phosphodiesterase 4 [1]): 50 µM
Ratio (Phosphodiesterase 4 [2]): 0.12
IC50 (Phosphodiesterase 4 [3]): 6 µM

COc1ccc(S(=O)(=O)N(CC#N)Cc2ccco2)cc1OC
inhibition (Phosphodiesterase 4 [5]): 30%
Ratio (Phosphodiesterase 4 [2]): > 1
inhibition (Phosphodiesterase 4 [4]): 36%

COc1ccc(S(=O)(=O)N(Cc2cccnc2)S(C)(=O)=O)cc1OC1CCCC1
IC50 (Phosphodiesterase 4 [1]): 4.5 µM
Ratio (Phosphodiesterase 4 [2]): 0.44
IC50 (Phosphodiesterase 4 [3]): 2 µM

COc1ccc(S(=O)(=O)NC2CCc3ccccc32)cc1OC (stereo unspecified)
Ratio (Phosphodiesterase 4 [2]): < 0.6
IC50 (Phosphodiesterase 4 [3]): 6 µM
inhibition (Phosphodiesterase 4 [4]): 12%

COc1ccc(S(=O)(=O)N(CCC#N)Cc2ccco2)cc1OC
Ratio (Phosphodiesterase 4 [2]): < 1
IC50 (Phosphodiesterase 4 [3]): 10 µM
inhibition (Phosphodiesterase 4 [4]): 37%

COc1ccc(C2CNC(=O)C2)cc1OC1CCCC1 (stereo unspecified) [ROLIPRAM]
inhibition [13]: 28%
IC50 (Phosphodiesterase 1 [14]): > 200 µM
inhibition [9]: 27%

COc1ccc(S(=O)(=O)n2c(=O)cc(-c3ccccc3)c3ccccc32)cc1OC
IC50 (Phosphodiesterase 4 [15]): 0.5 µM
inhibition (Phosphodiesterase 4 [4]): 14%

COc1ccc(S(=O)(=O)n2c(-c3ccccc3)cc3ccccc3c2=O)cc1OC
IC50 (Phosphodiesterase 4 [15]): 0.6 µM
inhibition (Phosphodiesterase 4 [4]): 31%

COc1ccc(S(=O)(=O)NC2CCCC2)cc1OC
Ratio (Phosphodiesterase 4 [2]): < 1
IC50 (Phosphodiesterase 4 [3]): 100 µM
inhibition (Phosphodiesterase 4 [7]): 19%

COc1ccc(S(=O)(=O)n2ccc3ccccc3c2=O)cc1OC
IC50 (Phosphodiesterase 4 [15]): 0.5 µM
IC50 (Phosphodiesterase 4 [16]): 4 µM

COc1ccc(S(=O)(=O)N2CCc3ccccc32)cc1OC
Ratio (Phosphodiesterase 4 [2]): < 0.43
IC50 (Phosphodiesterase 4 [3]): 4.3 µM
inhibition (Phosphodiesterase 4 [4]): 18%

COc1ccc(S(=O)(=O)N(CCCC#N)Cc2ccco2)cc1OC
Ratio (Phosphodiesterase 4 [2]): < 1
IC50 (Phosphodiesterase 4 [3]): 9 µM
inhibition (Phosphodiesterase 4 [4]): 37%

COc1ccc(S(=O)(=O)N(Cc2ccccn2)C2CCc3ccccc32)cc1OC (stereo unspecified)
Ratio (Phosphodiesterase 4 [2]): < 0.5
IC50 (Phosphodiesterase 4 [3]): 5.3 µM
inhibition (Phosphodiesterase 4 [4]): 12%

COc1ccc(S(=O)(=O)N(Cc2ccccc2)Cc2ccccn2)cc1OC
Ratio (Phosphodiesterase 4 [2]): < 0.7
IC50 (Phosphodiesterase 4 [3]): 7.8 µM
inhibition (Phosphodiesterase 4 [4]): 5%

COc1ccc(C(=O)NC2CCc3ccccc32)cc1OC (stereo unspecified)
IC50 (Phosphodiesterase 4 [1]): 3 µM
inhibition (Phosphodiesterase 1 [8]): 14%
Ratio (Phosphodiesterase 4 [2]): 3.7
IC50 (Phosphodiesterase 4 [3]): 11 µM
inhibition [9]: 53%
inhibition [10]: 37%
inhibition [11]: 24%

COc1ccc(S(=O)(=O)N(CC(C)=O)Cc2ccco2)cc1OC
IC50 (Phosphodiesterase 4 [1]): 35 µM
Ratio (Phosphodiesterase 4 [2]): 0.69
IC50 (Phosphodiesterase 4 [3]): 24 µM

COc1ccc(S(=O)(=O)N(CCC#N)C2CCCc3ccccc32)cc1OC (stereo unspecified)
Ratio (Phosphodiesterase 4 [2]): < 0.6
IC50 (Phosphodiesterase 4 [3]): 6.4 µM
inhibition (Phosphodiesterase 4 [4]): 30%

CCCN(Cc1ccc(C(=O)NC)cc1)S(=O)(=O)c1ccc(OC)c(OC)c1
IC50 (Phosphodiesterase 4 [1]): 4.3 µM
Ratio (Phosphodiesterase 4 [2]): 0.44
IC50 (Phosphodiesterase 4 [3]): 1.9 µM

COC(=O)CN(Cc1ccco1)S(=O)(=O)c1ccc(OC)c(OC)c1
Ratio (Phosphodiesterase 4 [2]): < 1
IC50 (Phosphodiesterase 4 [3]): 10 µM
inhibition (Phosphodiesterase 4 [7]): 23%

COc1ccc(S(=O)(=O)N(Cc2cccnc2)C2CCc3ccccc32)cc1OC (stereo unspecified)
Ratio (Phosphodiesterase 4 [2]): < 0.9
IC50 (Phosphodiesterase 4 [3]): 9 µM
inhibition (Phosphodiesterase 4 [4]): 20%

COc1ccc(S(=O)(=O)NCCC#N)cc1OC
IC50 (Phosphodiesterase 4 [1]): 50 µM
IC50 (Phosphodiesterase 4 [15]): 17.6 µM

COc1ccc(S(=O)(=O)n2c(-c3ccccc3)cc3ncccc3c2=O)cc1OC
IC50 (Phosphodiesterase 4 [15]): 1.5 µM
inhibition (Phosphodiesterase 4 [4]): 20%

COc1ccc(S(=O)(=O)N(CCC#N)C2CCc3ccccc32)cc1OC (stereo unspecified)
Ratio (Phosphodiesterase 4 [2]): < 0.4
IC50 (Phosphodiesterase 4 [3]): 4.1 µM
inhibition (Phosphodiesterase 4 [4]): 26%

COc1ccc(S(=O)(=O)N(Cc2ccccc2)Cc2cccnc2)cc1OC
inhibition (Phosphodiesterase 4 [17]): 8%
Ratio (Phosphodiesterase 4 [2]): < 1
IC50 (Phosphodiesterase 4 [3]): 5 µM
